From PubChem BioAssay (NCI)
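At the GI50, growth is halved. The concentration for full growth arrest is given as TGI.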

Assays:
Test in all cases: DTP human tumour cell line panel, 384-well format
MDA-MB-435 melanoma = system: MDA-MB-435 melanoma
CAKI-1 renal = system: CAKI-1 renal
OVCAR-4 ovarian = system: OVCAR-4 ovarian
MOLT-4 leukemia = system: MOLT-4 leukemia
SW-620 colon = system: SW-620 colon
U251 glioblastoma = system: U251 glioblastoma
NCI-H23 lung = system: NCI-H23 lung
ACHN renal = system: ACHN renal
HT29 colon = system: HT29 colon
HCT-116 colon = system: HCT-116 colon
SR leukemia = system: SR leukemia
HOP-92 NSCLC = system: HOP-92 NSCLC
MDA-MB-468 breast = system: MDA-MB-468 breast
KM12 colon = system: KM12 colon
T-47D breast = system: T-47D breast
SNB-75 CNS = system: SNB-75 CNS
EKVX NSCLC = system: EKVX NSCLC
OVCAR-5 ovarian = system: OVCAR-5 ovarian
MALME-3M melanoma = system: MALME-3M melanoma
MCF7 breast = system: MCF7 breast
UACC-257 melanoma = system: UACC-257 melanoma
786-0 renal = system: 786-0 renal
RPMI-8226 leukemia = system: RPMI-8226 leukemia
SF-268 CNS = system: SF-268 CNS
OVCAR-3 ovarian = system: OVCAR-3 ovarian
NCI-H460 NSCLC = system: NCI-H460 NSCLC
HL-60(TB) leukemia = system: HL-60(TB) leukemia
SN12C renal = system: SN12C renal
NCI-H226 lung = system: NCI-H226 lung
TK-10 renal = system: TK-10 renal
SK-MEL-5 melanoma = system: SK-MEL-5 melanoma
COLO 205 colon = system: COLO 205 colon
NCI-H322M lung = system: NCI-H322M lung
CCRF-CEM leukemia = system: CCRF-CEM leukemia
OVCAR-8 ovarian = system: OVCAR-8 ovarian
DU-145 prostate = system: DU-145 prostate
SF-295 CNS = system: SF-295 CNS
LOX IMVI melanoma = system: LOX IMVI melanoma
SK-OV-3 ovarian = system: SK-OV-3 ovarian
A549 NSCLC = system: A549 NSCLC
HS 578T breast = system: HS 578T breast
SK-MEL-28 melanoma = system: SK-MEL-28 melanoma
SF-539 CNS = system: SF-539 CNS
BT-549 breast = system: BT-549 breast
UACC-62 melanoma = system: UACC-62 melanoma
RXF 393 renal = system: RXF 393 renal
A498 renal = system: A498 renal
UO-31 renal = system: UO-31 renal
NCI-H522 lung = system: NCI-H522 lung
M14 melanoma = system: M14 melanoma
SNB-19 CNS = system: SNB-19 CNS
MDA-MB-231 breast = system: MDA-MB-231 breast
HCT-15 colon = system: HCT-15 colon
IGROV1 ovarian = system: IGROV1 ovarian
PC-3 prostate = system: PC-3 prostate
HOP-62 NSCLC = system: HOP-62 NSCLC

COc1cc2c(cc1O)CCN[C@]21CS[C@@H]2c3c(OC(C)=O)c(C)c4c(c3[C@H](COC1=O)N1[C@@H]2[C@H]2c3c(cc(C)c(OC)c3O)C[C@@H]([C@@H]1O)N2C)OCO4
GI50 (MDA-MB-435 melanoma): 0.614 nM | TGI (MDA-MB-435 melanoma): 1.09 nM | GI50 (CAKI-1 renal): 0.497 nM | TGI (CAKI-1 renal): 4.25 nM | GI50 (OVCAR-4 ovarian): 2.77 nM | TGI (OVCAR-4 ovarian): 5.98 nM | GI50 (MOLT-4 leukemia): 0.0228 nM | TGI (MOLT-4 leukemia): 0.0638 nM | GI50 (SW-620 colon): 1.61 nM | TGI (SW-620 colon): 3.49 nM | GI50 (U251 glioblastoma): 0.17 nM | TGI (U251 glioblastoma): 0.842 nM | GI50 (NCI-H23 lung): 0.0949 nM | TGI (NCI-H23 lung): 0.309 nM | GI50 (ACHN renal): 0.685 nM | TGI (ACHN renal): 2.24 nM | GI50 (HT29 colon): 0.117 nM | TGI (HT29 colon): 0.245 nM | GI50 (HCT-116 colon): 0.653 nM | GI50 (SR leukemia): 0.0313 nM | TGI (SR leukemia): 0.0728 nM | GI50 (HOP-92 NSCLC): 0.0211 nM | TGI (HOP-92 NSCLC): 0.0954 nM | GI50 (MDA-MB-468 breast): 0.0656 nM | TGI (MDA-MB-468 breast): 0.147 nM | GI50 (KM12 colon): 1.4 nM | TGI (KM12 colon): 3.58 nM | GI50 (T-47D breast): 0.482 nM | TGI (T-47D breast): 2.33 nM | GI50 (SNB-75 CNS): 0.0952 nM | TGI (SNB-75 CNS): 0.329 nM | GI50 (EKVX NSCLC): 0.583 nM | TGI (EKVX NSCLC): 1.28 nM | GI50 (OVCAR-5 ovarian): 0.983 nM | TGI (OVCAR-5 ovarian): 9.36 nM | GI50 (MALME-3M melanoma): 0.136 nM | TGI (MALME-3M melanoma): 0.37 nM | GI50 (MCF7 breast): 0.447 nM | TGI (MCF7 breast): 5.54 nM | GI50 (UACC-257 melanoma): 0.546 nM | TGI (UACC-257 melanoma): 0.987 nM | GI50 (786-0 renal): 0.0975 nM | TGI (786-0 renal): 0.568 nM | GI50 (RPMI-8226 leukemia): 0.0686 nM | TGI (RPMI-8226 leukemia): 0.153 nM | GI50 (SF-268 CNS): 0.121 nM | TGI (SF-268 CNS): 0.542 nM | GI50 (OVCAR-3 ovarian): 0.227 nM | TGI (OVCAR-3 ovarian): 0.698 nM | GI50 (NCI-H460 NSCLC): 0.112 nM | TGI (NCI-H460 NSCLC): 0.454 nM | GI50 (HL-60(TB) leukemia): 0.0567 nM | TGI (HL-60(TB) leukemia): 0.105 nM | GI50 (SN12C renal): 0.133 nM | TGI (SN12C renal): 0.715 nM | GI50 (NCI-H226 lung): 0.0901 nM | TGI (NCI-H226 lung): 0.359 nM | GI50 (TK-10 renal): 2.48 nM | TGI (TK-10 renal): 6 nM | GI50 (SK-MEL-5 melanoma): 0.0992 nM | TGI (SK-MEL-5 melanoma): 0.345 nM | GI50 (COLO 205 colon): 0.433 nM | TGI (COLO 205 colon): 0.882 nM | GI50 (NCI-H322M lung): 0.481 nM | TGI (NCI-H322M lung): 1.03 nM | GI50 (CCRF-CEM leukemia): 0.0203 nM | TGI (CCRF-CEM leukemia): 0.0389 nM | GI50 (OVCAR-8 ovarian): 0.169 nM | TGI (OVCAR-8 ovarian): 0.555 nM | GI50 (DU-145 prostate): 0.31 nM | TGI (DU-145 prostate): 0.84 nM | GI50 (SF-295 CNS): 0.0877 nM | TGI (SF-295 CNS): 0.299 nM | GI50 (LOX IMVI melanoma): 0.0744 nM | TGI (LOX IMVI melanoma): 0.234 nM | GI50 (SK-OV-3 ovarian): 2.22 nM | TGI (SK-OV-3 ovarian): 7.34 nM | GI50 (A549 NSCLC): 0.868 nM | TGI (A549 NSCLC): 2.37 nM | GI50 (HS 578T breast): 0.175 nM | TGI (HS 578T breast): 0.555 nM | GI50 (SK-MEL-28 melanoma): 0.459 nM | TGI (SK-MEL-28 melanoma): 0.888 nM | GI50 (SF-539 CNS): 0.0765 nM | TGI (SF-539 CNS): 0.185 nM | GI50 (BT-549 breast): 0.0545 nM | TGI (BT-549 breast): 0.124 nM | GI50 (UACC-62 melanoma): 0.099 nM | TGI (UACC-62 melanoma): 0.371 nM | GI50 (RXF 393 renal): 0.0747 nM | TGI (RXF 393 renal): 0.209 nM | GI50 (A498 renal): 1.18 nM | TGI (A498 renal): 2.61 nM | GI50 (UO-31 renal): 0.514 nM | TGI (UO-31 renal): 0.962 nM | GI50 (NCI-H522 lung): 0.11 nM | TGI (NCI-H522 lung): 0.447 nM | GI50 (M14 melanoma): 0.0865 nM | TGI (M14 melanoma): 0.237 nM | GI50 (SNB-19 CNS): 0.84 nM | GI50 (MDA-MB-231 breast): 1 nM | TGI (MDA-MB-231 breast): 2.56 nM | GI50 (HCT-15 colon): 0.595 nM | TGI (HCT-15 colon): 5.24 nM | GI50 (IGROV1 ovarian): 0.885 nM | TGI (IGROV1 ovarian): 8.12 nM | GI50 (PC-3 prostate): 0.396 nM | TGI (PC-3 prostate): 1.54 nM | GI50 (HOP-62 NSCLC): 0.0657 nM | TGI (HOP-62 NSCLC): 0.177 nM
